Data from patent US6881418B2, “Liquid deodorant killing microorganism and method of microorganism-killing deodorization” (K.I Chemical Industry Co., Ltd., priority 2001, dated 2005).

Tests used:
[1] = Test of sustainability of deodorant effect against active sludge (gas detector tubes); details: gas phase over 40% sludge suspension, ND = equal to or lower than detection limit
Method: Active sludge (dehydrated cake, water content 70%) obtained from a sewage treatment plant was used for tests on the deodorant effect. The obtained active sludge was suspended with distilled water to form a 40% suspension. Example 9, Comparative Example 2, or powdered Compound A2 was then added to the suspension in a prescribed amount (indicated based on active ingredient) and stirred. 200 g of each suspension containing Example 9, Comparative Example 2, or powdered Compound A2 was transferred to a 1-liter Erlenmeyer flask, and the flask was sealed with a rubber stopper provided with 2 glass pipes each having a rubber tube and a pinchcock. […] The measurement of each gas component was conducted by inserting a gas detector tube into one of the rubber tubes with both pinchcocks open. Used herein were a gas detector 3L (GASTEC CORPORATION) for ammonia, a gas detector 3L (GASTEC CORPORATION) for hydrogen sulfide, and a gas detector 71 (GASTEC CORPORATION) for methyl mercaptan.

[2] = system: Escherichia genus microbes; assay: Test of fast-acting microbicidal efficacy (viable cell count against contact time); type: cell-based; details: pH 8
Method: Escherichia genus microbes, which were subjected to cell washing, were diluted with phosphate/citrate buffer solution (pH 8) to a concentration of approximately 10^6 CFU/ml, and 1 L each of the prepared solution was poured into glass beakers. Example 1 or 8, and the powdered substance of Compound A1 were each added thereto so as to bring to a prescribed concentration (indicated based on active ingredient), respectively, and the mixtures were stirred for 90 minutes. A portion of each mixture was taken at 5, 10, 30, and 90 minutes and was diluted with sterilized water. Then, the diluted mixture was inoculated onto a nutrient plate agar medium and cultured in an incubator at 30° C. for 3 days. Then, viable cells therein were counted. The results are shown in Tables 6 and 7 in the unit of CFU/ml. Tables 6 and 7 indicate the results obtained by conducting the tests over two separate occasions under the above conditions.

[3] = 10 ppm active ingredient, 1 hour later
[4] = 10 ppm active ingredient, 2 hours later
[5] = 20 ppm active ingredient, 1 hour later
[6] = 20 ppm active ingredient, 2 hours later
[7] = 40 ppm active ingredient, 1 hour later
[8] = 40 ppm active ingredient, 2 hours later
[9] = 80 ppm active ingredient, 2 hours later

Q: What does the source list for `CC1(C)C(=O)N(Cl)C(=O)N1Br` [Compound A2, 1-bromo-3-chloro-5,5-dimethylhydantoin]?
A: Volume of Ammonia [1, 3]: 40 ppm; Volume of Hydrogen sulfide [1, 3]: 5.0 ppm; Volume of Methyl mercaptan [1, 3]: 10 ppm; Volume of Ammonia [1, 4]: 40 ppm; Volume of Hydrogen sulfide [1, 4]: 5.0 ppm; Volume of Methyl mercaptan [1, 4]: 10 ppm; Volume of Ammonia [1, 5]: 40 ppm; Volume of Hydrogen sulfide [1, 5]: 5.0 ppm; Volume of Methyl mercaptan [1, 5]: 10 ppm; Volume of Ammonia [1, 6]: 40 ppm; Volume of Hydrogen sulfide [1, 6]: 5.0 ppm; Volume of Methyl mercaptan [1, 6]: 10 ppm; Volume of Ammonia [1, 7]: 10 ppm; Volume of Hydrogen sulfide [1, 7]: 2.5 ppm; Volume of Methyl mercaptan [1, 7]: 0.5 ppm; Volume of Ammonia [1, 8]: 40 ppm; Volume of Hydrogen sulfide [1, 8]: 5.0 ppm; Volume of Methyl mercaptan [1, 8]: 10 ppm; Volume of Ammonia [1, 9]: 20 ppm; Volume of Hydrogen sulfide [1, 9]: 5.0 ppm; Volume of Methyl mercaptan [1, 9]: 5.0 ppm

Q: With `CC1(C)C(=O)N(Br)C(=O)N1Br` [Compound A1, 1,3-dibromo-5,5-dimethylhydantoin] as the compound, how does the viable cells ([2]; 0.25 ppm active ingredient, contact time 5 min, Table 6) read?
A: 3.0 × 10^6 CFU/ml

Q: And the viable cells ([2]; 0.25 ppm active ingredient, contact time 5 min, Table 7)?
A: 5.6 × 10^6 CFU/ml

Q: What about the viable cells ([2]; 0.25 ppm active ingredient, contact time 10 min, Table 6) of the same compound?
A: 3.1 × 10^6 CFU/ml

Q: What about the viable cells ([2]; 0.25 ppm active ingredient, contact time 10 min, Table 7) of the same compound?
A: 5.1 × 10^6 CFU/ml

Q: What about the viable cells ([2]; 0.25 ppm active ingredient, contact time 30 min, Table 6) of the same compound?
A: 4.5 × 10^5 CFU/ml

Q: And the viable cells ([2]; 0.25 ppm active ingredient, contact time 30 min, Table 7)?
A: 3.7 × 10^5 CFU/ml

Q: And the viable cells ([2]; 0.25 ppm active ingredient, contact time 90 min, Table 6)?
A: 3.7 × 10^5 CFU/ml

Q: What about the viable cells ([2]; 0.25 ppm active ingredient, contact time 90 min, Table 7) of the same compound?
A: 2.7 × 10^5 CFU/ml

Q: And the viable cells ([2]; 0.5 ppm active ingredient, contact time 5 min, Table 6)?
A: 3.0 × 10^6 CFU/ml

Q: And the viable cells ([2]; 0.5 ppm active ingredient, contact time 5 min, Table 7)?
A: 5.0 × 10^6 CFU/ml

Q: And the viable cells ([2]; 0.5 ppm active ingredient, contact time 10 min, Table 6)?
A: 7.7 × 10^5 CFU/ml

Q: What about the viable cells ([2]; 0.5 ppm active ingredient, contact time 10 min, Table 7) of the same compound?
A: 6.7 × 10^5 CFU/ml

Q: What about the viable cells ([2]; 0.5 ppm active ingredient, contact time 30 min, Table 6) of the same compound?
A: 8.0 × 10^4 CFU/ml

Q: And the viable cells ([2]; 0.5 ppm active ingredient, contact time 30 min, Table 7)?
A: 8.0 × 10^4 CFU/ml

Q: And the viable cells ([2]; 0.5 ppm active ingredient, contact time 90 min, Table 6)?
A: <10^2 CFU/ml

Q: What about the viable cells ([2]; 0.5 ppm active ingredient, contact time 90 min, Table 7) of the same compound?
A: <10^2 CFU/ml

Q: And the viable cells ([2]; 1.0 ppm active ingredient, contact time 5 min, Table 6)?
A: 2.9 × 10^6 CFU/ml

Q: And the viable cells ([2]; 1.0 ppm active ingredient, contact time 5 min, Table 7)?
A: 4.8 × 10^6 CFU/ml

Q: What about the viable cells ([2]; 1.0 ppm active ingredient, contact time 10 min, Table 6) of the same compound?
A: 2.7 × 10^5 CFU/ml

Q: And the viable cells ([2]; 1.0 ppm active ingredient, contact time 10 min, Table 7)?
A: 2.9 × 10^5 CFU/ml

Q: What about the viable cells ([2]; 1.0 ppm active ingredient, contact time 30 min, Table 6) of the same compound?
A: 4.0 × 10^3 CFU/ml

Q: And the viable cells ([2]; 1.0 ppm active ingredient, contact time 30 min, Table 7)?
A: 8.8 × 10^3 CFU/ml

Q: What about the viable cells ([2]; 1.0 ppm active ingredient, contact time 90 min, Table 6) of the same compound?
A: <10^2 CFU/ml

Q: And the viable cells ([2]; 1.0 ppm active ingredient, contact time 90 min, Table 7)?
A: <10^2 CFU/ml

Q: What about the viable cells ([2]; 1.5 ppm active ingredient, contact time 5 min, Table 6) of the same compound?
A: 3.3 × 10^6 CFU/ml

Q: And the viable cells ([2]; 1.5 ppm active ingredient, contact time 5 min, Table 7)?
A: 4.3 × 10^6 CFU/ml

Q: And the viable cells ([2]; 1.5 ppm active ingredient, contact time 10 min, Table 6)?
A: 5.0 × 10^4 CFU/ml

Q: And the viable cells ([2]; 1.5 ppm active ingredient, contact time 10 min, Table 7)?
A: 3.0 × 10^4 CFU/ml

Q: What about the viable cells ([2]; 1.5 ppm active ingredient, contact time 30 min, Table 6) of the same compound?
A: 2.0 × 10^2 CFU/ml

Q: And the viable cells ([2]; 1.5 ppm active ingredient, contact time 30 min, Table 7)?
A: <10^2 CFU/ml

Q: What about the viable cells ([2]; 1.5 ppm active ingredient, contact time 90 min, Table 6) of the same compound?
A: <10^2 CFU/ml

Q: And the viable cells ([2]; 1.5 ppm active ingredient, contact time 90 min, Table 7)?
A: <10^2 CFU/ml

Q: And the viable cells ([2]; 2.0 ppm active ingredient, contact time 5 min, Table 6)?
A: 1.0 × 10^5 CFU/ml

Q: And the viable cells ([2]; 2.0 ppm active ingredient, contact time 5 min, Table 7)?
A: 3.2 × 10^5 CFU/ml

Q: What about the viable cells ([2]; 2.0 ppm active ingredient, contact time 10 min, Table 6) of the same compound?
A: 2.0 × 10^4 CFU/ml

Q: What about the viable cells ([2]; 2.0 ppm active ingredient, contact time 10 min, Table 7) of the same compound?
A: 1.2 × 10^4 CFU/ml

Q: What about the viable cells ([2]; 2.0 ppm active ingredient, contact time 30 min, Table 6) of the same compound?
A: <10^2 CFU/ml

Q: What about the viable cells ([2]; 2.0 ppm active ingredient, contact time 30 min, Table 7) of the same compound?
A: <10^2 CFU/ml

Q: And the viable cells ([2]; 2.0 ppm active ingredient, contact time 90 min, Table 6)?
A: <10^2 CFU/ml

Q: What about the viable cells ([2]; 2.0 ppm active ingredient, contact time 90 min, Table 7) of the same compound?
A: <10^2 CFU/ml
